From US3968231A, “4-Aryl-1,2,3,4-tetrahydropyrrolo(3,4-b)indoles for treating schizophrenic manifestations” (Bayer Aktiengesellschaft, priority 1975, dated 1976)
Where two headings read alike, the source gives them in different places.

System: amphetamine-induced symptoms
Assay: antagonism of amphetamine-induced symptoms in rats (block of d-amphetamine cage movement, rating scale)
Assay type: in vivo
Conditions: Rattus norvegicus, ip, i.p. test compound, rated one hour after amphetamine
Excerpt: The tranquilizing agents of the present invention are characterized by relief of such schizophrenic manifestations in humans as hallucinations, hostility, suspiciousness, emotional and social withdrawal, anxiety, agitation and tension. Standard procedures of detecting and comparing tranquilizing activity of compounds in this series and for which there is an excellent correlation with human efficacy is the antagonism of amphetamine-induced symptoms in rats test as taught by A. Weissman, et al., J. Pharmacol. Exp. Ther., 151, 339 (1966) and by Quinton, et al., Nature, 200, 178 (1963).
The effects of the compounds of the present invention on prominent amphetamine-induced symptoms were studied in rats by a rating scale modeled after the one reported by Quinton and Halliwell, and Weissman. Groups of five rats were placed in a covered plastic cage measuring approximately 26 cm. × 42 cm. × 16 cm. After a brief period of acclimation in the cage, the rats in each group were treated intraperitoneally (i.p.) with the test compound. […] On the basis of dose-response data after amphetamine it was possible to determine the effective dose of the compound necessary to antagonize or block the characteristic amphetamine behavior of cage movement for fifty percent of the rats tested (ED50). The time of rating chosen coincides with the peak action of amphetamine which is 60-80 min. after treatment with this agent.
Employing the above-described procedure, the following compounds were tested for their ability to block the behavior effects of amphetamine, the results being reported as the ED50 in mg./kg. at the indicated times: ##SPC25##

[1] = d-amphetamine sulfate 5 mg./kg. i.p. 1 hr. later, read-out: ED50 (dose antagonizing/blocking characteristic amphetamine cage movement in fifty percent of rats), 1 hr.
[2] = d-amphetamine sulfate 5 mg./kg. i.p. 5 hrs. later, read-out: ED50 (dose antagonizing/blocking characteristic amphetamine cage movement in fifty percent of rats), 5 hrs.

CN1Cc2c(n(-c3ccc(F)cc3)c3ccc(F)cc23)C1 [F F CH3, 7-Fluoro-4-(p-fluorophenyl)-2-methyl-1,2,3,4-tetrahydropyrrolo[3,4-b]indole]
ED50 [1]: 3.2 to 5.6 mg/kg | ED50 [2]: > 10 mg/kg

Cl.OC(CCCN1Cc2c(n(-c3ccc(F)cc3)c3ccc(F)cc23)C1)c1ccc(F)cc1 (centres unmarked) [F F p-FC6 H4 CH(CH2)3 --, 7-Fluoro-4-(p-fluorophenyl)-2-[4-(p-fluorophenyl)-4-hydroxybutyl]-1,2,3,4-tetrahydropyrrolo[3,4-b]indole hydrochloride]
ED50 [1]: 1 to 3.2 mg/kg | ED50 [2]: 1 to 3.2 mg/kg

CN(C)CCCN1c2ccccc2Sc2ccc(Cl)cc21 [chlorpromazine, reference compound]
ED50 [1]: > 10 mg/kg
